Measured values: ChEMBL document CHEMBL4483862, “Open-source discovery of chemical leads for next-generation chemoprotective antimalarials” (2018)

Tested on: Plasmodium berghei
Experiment: Luciferase/luciferin-expressing antifolate-resistant parasites were used to infect a culture of HepG2 cells that were pre-incubated with compounds. Infected hepatocytes emit light due to the luciferase reaction. Assay results are presented as the percent inhibition of light emission compared to control. […]
Assay type: functional
Conditions: sporozoite; for IC90: read-out: LUCIFERASE INFECTION ASSAY - IC90
[1] = read-out: LUCIFERASE INFECTION ASSAY - IC50

Row | SMILES | IC50 [1] [µM] | IC90 [µM] | also measured
1 | Cc1c(-c2cccc(Cl)c2)nc2ccccc2c1C(=O)OCC(=O)C(C#N)=C1Nc2ccccc2N1 | > 10 | > 10 | –
2 | CN(C)c1ccc(NC(=O)CCc2nc(-c3ccc(Cl)cc3)no2)c(C#N)c1Cl | – | > 7.67 | IC50 (HEPG2TOX_HILL_SLOPE 10.4, HEPG2TOX_R_SQUARED 0.728, PBLUC_HILL_SLOPE 0.523, PBLUC_R_SQUARED 0.342, read-out: LUCIFERASE INFECTION ASSAY - IC50): > 7.67 µM
3 | CC1(C(=O)N2CCN(c3ccc(C(F)(F)F)cn3)CC2)Cc2ccccc2C(=O)O1 (stereo not given) | – | > 10 | IC50 (HEPG2TOX_HILL_SLOPE 9.02, HEPG2TOX_R_SQUARED 0.896, PBLUC_HILL_SLOPE 11.4, 1.60, PBLUC_R_SQUARED 0.0115, 0.213, read-out: LUCIFERASE INFECTION ASSAY - IC50): 7.88 µM
4 | CCCN1CCc2nc(NCc3ccc(Cl)c(Cl)c3)ncc2C1 | 5.58 | > 9.39 | –
5 | COc1ccc2c(C)cc3nnc(SCC(=O)NCC45CC6CC(CC(C6)C4)C5)n3c2c1 | – | > 10 | IC50 (HEPG2TOX_HILL_SLOPE 7.95, HEPG2TOX_R_SQUARED 0.512, PBLUC_HILL_SLOPE 13.7, PBLUC_R_SQUARED 0.353, read-out: LUCIFERASE INFECTION ASSAY - IC50): 8.94 µM
6 | Cc1c(C(=O)Nc2nc3c(C)cccc3s2)[nH]c2c1C(=O)CCC2 | – | > 10 | IC50 (PBLUC_HILL_SLOPE 2.07, PBLUC_R_SQUARED 0.0587, read-out: LUCIFERASE INFECTION ASSAY - IC50): 5.05 µM
7 | CC(Nc1ccc(OC(F)(F)F)cc1)C(=O)Nc1ccc(C#N)c(Cl)c1 (stereo not given) | 8.9 | > 10 | –
8 | CC(C)c1csc(NC(=O)c2cnn(-c3ccccc3F)c2C(F)(F)F)n1 | – | 2.32 | IC50 (FFLUC_HILL_SLOPE 1.67, FFLUC_R_SQUARED 0.227, HEPG2TOX_HILL_SLOPE 2.85, HEPG2TOX_R_SQUARED 0.664, PBLUC_HILL_SLOPE 0.553, PBLUC_R_SQUARED 0.884, read-out: LUCIFERASE INFECTION ASSAY - IC50): 0.0438 µM
9 | Cc1cccn2c(C(=O)NC(C)C)c(NC(=O)c3cccc(C(F)(F)F)c3)nc12 | > 8.16 | > 8.16 | –
10 | CN(C)c1ccc(C(=O)N/N=C/c2cc(Cl)cc(Cl)c2O)cc1 | > 9.37 | > 9.37 | –
11 | COc1cc2c(cc1OC)C(c1ccccc1C(F)(F)F)CC(=O)N2 (stereo not given) | – | > 9.39 | IC50 (PBLUC_HILL_SLOPE 2.57, PBLUC_R_SQUARED 0.0741, read-out: LUCIFERASE INFECTION ASSAY - IC50): 7.98 µM
12 | CC(c1ccc(-n2cncn2)cc1)N(C)S(=O)(=O)N1CCc2ccccc2C1 (stereo not given) | – | > 10 | IC50 (PBLUC_HILL_SLOPE 2.44, PBLUC_R_SQUARED 0.756, read-out: LUCIFERASE INFECTION ASSAY - IC50): 6.27 µM
13 | N#Cc1ccccc1S(=O)(=O)Nc1cccc(-n2cccn2)c1 | > 10 | > 10 | –
14 | CC(C)(C)c1ccc(C(=O)Nc2cccc(F)c2C#N)cc1 | – | > 11.1 | IC50 (PBLUC_HILL_SLOPE 11.7, PBLUC_R_SQUARED 0.257, read-out: LUCIFERASE INFECTION ASSAY - IC50): 9.4 µM
15 | Clc1ccccc1COc1ccccc1CNCc1cccnc1 | > 9.74 | > 9.74 | –
16 | COc1cccc(Nc2nccc3[nH]c(-c4cc(OC)cc(OC)c4)cc23)c1 | – | 1.74 | IC50 (HEPG2TOX_HILL_SLOPE 0.988, HEPG2TOX_R_SQUARED 0.934, PBLUC_HILL_SLOPE 2.38, PBLUC_R_SQUARED 0.617, read-out: LUCIFERASE INFECTION ASSAY - IC50): 0.69 µM
17 | COc1cc2c(cc1OC)C1(NCC2)C(=O)Nc2ccccc21 (stereo not given) | > 10 | > 10 | –
18 | Cc1[nH]c2ccccc2c1-c1nc(Nc2ccc3c(c2)OCCO3)sc1C | > 10 | > 10 | –
19 | CCOC(=O)c1sc(NC(=O)c2cc(-c3ccc(F)cc3)nc3ccccc23)cc1C | – | 9.91 | IC50 (HEPG2TOX_HILL_SLOPE 7.73, HEPG2TOX_R_SQUARED 0.935, PBLUC_HILL_SLOPE 14.3, PBLUC_R_SQUARED 0.729, read-out: LUCIFERASE INFECTION ASSAY - IC50): 8.51 µM
20 | C/C(=N\NC(=O)c1ccc(C(F)(F)F)cc1)c1ccccc1O | – | 3.38 | IC50 (HEPG2TOX_HILL_SLOPE 0.838, HEPG2TOX_R_SQUARED 0.996, PBLUC_HILL_SLOPE 3.61, PBLUC_R_SQUARED 0.312, read-out: LUCIFERASE INFECTION ASSAY - IC50): 1.84 µM

Row | SMILES | IC50 [1] [µM] | IC90 [µM] | also measured
21 | O=C(CN1CCC(C(=O)Nc2ccccc2O)CC1)Nc1nc(-c2cccc([N+](=O)[O-])c2)cs1 | – | > 10 | IC50 (PBLUC_HILL_SLOPE 3.03, PBLUC_R_SQUARED 0.0575, read-out: LUCIFERASE INFECTION ASSAY - IC50): 6.47 µM
22 | CSc1nnc(Sc2ncc([N+](=O)[O-])s2)s1 | – | > 11.3 | IC50 (FFLUC_HILL_SLOPE 11.6, FFLUC_R_SQUARED 0.224, HEPG2TOX_HILL_SLOPE 8.93, HEPG2TOX_R_SQUARED 0.0924, PBLUC_HILL_SLOPE 12.6, PBLUC_R_SQUARED 0.322, read-out: LUCIFERASE INFECTION ASSAY - IC50): 10 µM
23 | O=C1COc2ccc(-c3cs/c(=N\c4cc(S(=O)(=O)N5CCOCC5)ccc4Cl)n3C3CC3)cc2N1 | – | > 10 | IC50 (FFLUC_HILL_SLOPE 592, FFLUC_R_SQUARED 0.24, HEPG2TOX_HILL_SLOPE 8.86, HEPG2TOX_R_SQUARED 0.733, PBLUC_HILL_SLOPE 5.17, PBLUC_R_SQUARED 0.255, read-out: LUCIFERASE INFECTION ASSAY - IC50): 8.04 µM
24 | O=C(c1cnc(Nc2cccc(Oc3ccccc3)c2)[nH]1)c1ccccc1F | – | 3.36 | IC50 (HEPG2TOX_HILL_SLOPE 2.89, HEPG2TOX_R_SQUARED 0.712, PBLUC_HILL_SLOPE 12, PBLUC_R_SQUARED 0.715, read-out: LUCIFERASE INFECTION ASSAY - IC50): 2.8 µM
25 | Cc1ccc(Nc2nccc(C(F)(F)F)n2)cc1S(=O)(=O)N(C)C | – | > 10 | IC50 (HEPG2TOX_HILL_SLOPE 1.28, HEPG2TOX_R_SQUARED 0.583, PBLUC_HILL_SLOPE 1.84, 1.48, PBLUC_R_SQUARED 0.674, 0.430, read-out: LUCIFERASE INFECTION ASSAY - IC50): 4.96 µM
26 | COc1ccc(CN2C(=O)N(C)C3(CCN(Cc4ccc(N(C)c5ccccc5)cc4)CC3)C2=O)cc1 | – | 3.8 | IC50 (HEPG2TOX_HILL_SLOPE 3.68, HEPG2TOX_R_SQUARED 0.977, PBLUC_HILL_SLOPE 4.63, PBLUC_R_SQUARED 0.726, read-out: LUCIFERASE INFECTION ASSAY - IC50): 2.36 µM
27 | COc1ccccc1-c1nnc(SC(C(=O)Nc2cc(Cl)cc(Cl)c2)c2ccccc2)o1 (stereo not given) | – | 7.61 | IC50 (HEPG2TOX_HILL_SLOPE 8.26, HEPG2TOX_R_SQUARED 0.825, PBLUC_HILL_SLOPE 4.24, PBLUC_R_SQUARED 0.374, read-out: LUCIFERASE INFECTION ASSAY - IC50): 4.54 µM
28 | CCN1CCN(c2cc(C(C)(C)C)nc3c(-c4ccccc4)cnn23)CC1 | – | > 9.08 | IC50 (PBLUC_HILL_SLOPE 3.68, PBLUC_R_SQUARED 0.383, read-out: LUCIFERASE INFECTION ASSAY - IC50): 6.05 µM
29 | CC(C)c1ccc(OCC(=O)NC2CCCCCCC2)cc1 | – | > 10.9 | IC50 (PBLUC_HILL_SLOPE 1.5, PBLUC_R_SQUARED 0.0788, read-out: LUCIFERASE INFECTION ASSAY - IC50): > 10.9 µM
30 | Cc1ccc(NC(=O)c2cnn(-c3cccc(Cl)c3)c2C(C)C)nc1 | – | 4.3 | IC50 (PBLUC_HILL_SLOPE 12, PBLUC_R_SQUARED 0.586, read-out: LUCIFERASE INFECTION ASSAY - IC50): 3.58 µM
31 | CC(C)(C)c1csc(-c2ccc(/C=N/OC(=O)Nc3ccc(Cl)cc3)cc2)n1 | > 7.97 | > 7.97 | –
32 | O=C(C1CCCN(C2=NS(=O)(=O)c3ccccc32)C1)N1CCOCC1 (stereo not given) | > 10 | > 10 | –
33 | Cc1cccc(-c2cc(NC=O)c3ncc(-c4ccc(S(C)(=O)=O)cc4)n3c2)c1 | – | > 8.14 | IC50 (FFLUC_HILL_SLOPE 0.295, FFLUC_R_SQUARED 0.0341, HEPG2TOX_HILL_SLOPE 11.3, HEPG2TOX_R_SQUARED 0.289, read-out: LUCIFERASE INFECTION ASSAY - IC50): > 8.14 µM
34 | CN1/C(=C\C(=O)CCCSc2nnc(-c3ccccc3)n2N)C(C)(C)c2ccccc21 | – | > 10 | IC50 (FFLUC_HILL_SLOPE 2.28, FFLUC_R_SQUARED 0.541, HEPG2TOX_HILL_SLOPE 7.74, HEPG2TOX_R_SQUARED 0.566, PBLUC_HILL_SLOPE 1.71, PBLUC_R_SQUARED 0.591, read-out: LUCIFERASE INFECTION ASSAY - IC50): 3.64 µM
35 | O=C(/C=C/c1ccc2ccccc2n1)N1CCCC(c2nc3ccccc3[nH]2)C1 (stereo not given) | – | 9.5 | IC50 (HEPG2TOX_HILL_SLOPE 11.0, 10.5, HEPG2TOX_R_SQUARED 0.675, 0.360, PBLUC_HILL_SLOPE 2.71, 0.363, PBLUC_R_SQUARED 0.567, 0.526, read-out: LUCIFERASE INFECTION ASSAY - IC50): 2.81 µM
36 | CCCCCC(/C=N/Nc1nncc2ccccc12)=C\c1ccccc1 | – | 9.96 | IC50 (PBLUC_HILL_SLOPE 4.26, PBLUC_R_SQUARED 0.663, read-out: LUCIFERASE INFECTION ASSAY - IC50): 5.95 µM
37 | C/C(N)=C(/C#N)C(=O)CSc1nnc(-c2ccc(C(C)(C)C)cc2)n1-c1cccc(Cl)c1Cl | > 10 | > 10 | –
38 | CCN(C(=O)c1ccc(NC(=O)C2CC2)s1)c1ccccc1C | – | > 10 | IC50 (PBLUC_HILL_SLOPE 5.48, PBLUC_R_SQUARED 0.146, read-out: LUCIFERASE INFECTION ASSAY - IC50): 9.18 µM
39 | O=C1C=CC(=O)N1c1ccc(Cl)c(Cl)c1 | – | > 13.6 | IC50 (FFLUC_HILL_SLOPE 16.6, FFLUC_R_SQUARED 0.832, read-out: LUCIFERASE INFECTION ASSAY - IC50): > 13.6 µM
40 | O=C(CCOc1ccc(F)cc1)Nc1cc(Cl)cc(Cl)c1 | – | > 10.1 | IC50 (PBLUC_HILL_SLOPE 0.967, PBLUC_R_SQUARED 0.399, read-out: LUCIFERASE INFECTION ASSAY - IC50): > 10.1 µM
